# From patent publication US4067996A, “Phenylacetic acid derivatives” (Synthelabo, priority 1974, dated 1978)
# Like-named read-outs stand apart in the source and are kept apart here.
# Tests used:
# [1] = test system: triglycerides in the serum; assay: Hypolipaemic activity (triglycerides) in rats on oral administration (7 days); format: in vivo, male albino rats of the CDl race (Charles River); conditions: daily for 7 days
# Method: (§1) The reference substances chosen were clofibrate or ethyl 2-p-chlorophenoxy-2-methyl-propionate, and halofenate or 2-acetamido-ethyl2-p-chlorophenyl-2-m-trifluoromethylphenoxy-acetate.
# (§2) The hypocholesterolaemic action was determined on male albino rats of the CDl race (Charles River) weighing on average 250 g and fed normally, the rats being divided into batches each of 10 animals. Daily doses of one of the compounds studied were administered orally for 7 days. On the 8th day, the contents of cholesterol and triglycerides in the blood were determined and compared with those of animals of the untreated comparison group. In this way it was possible graphically to evaluate, for each compound, the 30% active dose (AD 30), that is to say the daily dose which causes a 30% reduction in the content of cholesterol or of triglycerides in the serum.
# (§3) *AD 30 = daily dose which causes a 30% reduction in the content of
# (§4) In a second series of experiments, the experimental technique was modified slightly: the compounds studied are dispersed in olive oil instead of being dissolved in water.
# cholesterol in the serum = assay: Hypocholesterolaemic action in rats on oral administration (7 days); format: in vivo, male albino rats of the CDl race (Charles River); conditions: daily for 7 days
# Method: as §1, §2, §3, §4
# [2] = Acute toxicity in mice on oral administration; format: in vivo; conditions: mouse, in vivo, read-out: LD 50 (acute toxicity)
# Method: (§5) The acute toxicity was studied by oral administration to CDl mice of both sexes. The 50% lethal doses (LD 50) were determined graphically.
# as §4
# [3] = test system: content of lipids (triglycerides and cholesterol) in the blood; assay: Hypolipaemic and hypocholesterolaemic effect compared with reference substances (summary); format: in vivo, rats
# Method: as §1, §2, §4
# CDl mice = assay: Acute toxicity in mice on oral administration; format: in vivo; conditions: Table III, second series, dispersed in olive oil
# Method: as §5, §4
# [4] = Table II, first series (dissolved in water)
# [5] = Table III, second series, dispersed in olive oil
SMILES,"AD 30, triglycerides (daily dose which causes a 30% reduction in serum triglycerides) [1, 4] [mg/kg]","AD 30, cholesterol (daily dose which causes a 30% reduction in serum cholesterol) (cholesterol in the serum; [4]) [mg/kg]","LD50 ([2]; Table II, first series) [mg/kg]","AD 30, triglycerides (daily dose which causes a 30% reduction in serum triglycerides) [1, 5] [mg/kg]","AD 30, cholesterol (daily dose which causes a 30% reduction in serum cholesterol) (cholesterol in the serum; [5]) [mg/kg]","LD50 [2, 5] [mg/kg]",times more active than clofibrate ([3]; relative to clofibrate),times more active than halofenate ([3]; relative to halofenate),LD 50 (acute toxicity) (CDl mice)
"O=C(NCCO)C(Oc1ccc(F)c(C(F)(F)F)c1)c1ccc(Cl)cc1 (centres unmarked) [SL D 064, 2-(4-Fluoro-3-trifluoromethyl-phenoxy)-2-(4-chloro-phenyl)-N-(2-hydroxy-ethyl)-acetamide]",20,> 100,> 2000,,,,,,
"CCOC(=O)C(C)(C)Oc1ccc(Cl)cc1 [Clofibrate, ethyl 2-p-chlorophenoxy-2-methyl-propionate, reference compound]",200,160,1300,,,,,,
"O=C(O)C(Oc1ccc(F)c(C(F)(F)F)c1)c1ccc(Cl)cc1 (centres unmarked) [SL C 151, 2-(4-Chloro-phenyl)-2-(4-fluoro-3-trifluoromethyl-phenoxy)-acetic acid]",12,50,2000,,,,,,
O=C(OCc1cccnc1)C(Oc1ccc(F)c(C(F)(F)F)c1)c1ccc(Cl)cc1 (centres unmarked) [SL D 065],35,55,> 2000,,,,,,
"CN(C)C(=O)CCCOC(=O)C(Oc1ccc(F)c(C(F)(F)F)c1)c1ccc(Cl)cc1 (centres unmarked) [SL-D.126, N,N-Dimethyl-3-aminocarbonyl-propyl 2-(4-fluoro-3-trifluoromethyl-phenoxy)-2-(4-chloro-phenyl)-acetate]",,,,20,70,> 2000,,,
NC(=O)C(Oc1ccc(F)c(C(F)(F)F)c1)c1ccc(Cl)cc1 (centres unmarked) [SL D 063],20,> 100,> 2000,,,,,,
"CC(=O)NCCOC(=O)C(Oc1cccc(C(F)(F)F)c1)c1ccc(Cl)cc1 (centres unmarked) [Halofenate, 2-acetamido-ethyl2-p-chlorophenyl-2-m-trifluoromethylphenoxy-acetate, reference compound]",50,70,1800,,,,,,
"CC(=O)NCCOC(=O)C(Oc1ccc(F)c(C(F)(F)F)c1)c1ccc(Cl)cc1 (centres unmarked) [SL C 149, 2-Acetylamino-ethyl 2-(4-chloro-phenyl)-2-(4-fluoro-3-trifluoromethyl-phenoxy)-acetate]",12,17,2000,20,30,,about 15 times,four,"2,000 mg/kg"
"CN1CCC(OC(=O)C(Oc2ccc(F)c(C(F)(F)F)c2)c2ccc(Cl)cc2)CC1 (centres unmarked) [SL-D.123, 1-Methyl-piperidinyl-4 2-(4-fluoro-3-trifluoromethyl-phenoxy)-2-(4-chloro-phenyl)-acetate]",,,,20,50,> 2000,,,
"CC1CC(OC(=O)C(Oc2ccc(F)c(C(F)(F)F)c2)c2ccc(Cl)cc2)CC(C)(C)C1 (centres unmarked) [SL-D.128, 3,3,5-Trimethyl-cyclohexyl-1 2-(4-fluoro-3-trifluoromethyl-phenoxy)-2-(4-chloro-phenyl)-acetate]",,,,10,80,> 2000,,,
"CCOC(=O)C(Oc1ccc(F)c(C(F)(F)F)c1)c1ccc(Cl)cc1 (centres unmarked) [SL C 150, Ethyl 2-(4-chloro-phenyl)-2-(4-fluoro-3-trifluoromethyl-phenoxy)-acetate]",25,20,> 2500,,,,,,
"CC(=O)NCCOC(=O)C(Oc1ccc(F)c(C(F)(F)F)c1)c1ccc(F)cc1 (centres unmarked) [SL D 097, 2-acetylamino-ethyl 2-(4-fluoro-3-trifluoromethyl-phenoxy)-2-(4-fluoro-phenyl)acetate]",25,> 100,> 2000,,,,,,
